pIC50: −log10 of the molar value. Each block holds one molecule with its values, some of them ahead of it.
Columns and labels:
Toledo cells = test: Cell proliferation assay (MTS), Toledo cells; format: cell-based; conditions: Homo sapiens, 72 h
Experimental: MTS testing kit was purchased from Promega (Madison, WI, USA). The RPMI-1640, Fetal bovine serum and Penicillin-Streptomycin were purchased from BI (Biological Industries, Beit Haemek, Israel). Dimethyl sulfoxide (DMSO) was purchased from Sigma (St. Louis., MO, USA). Toledo (ATCC catalog #: CRL-2631) cells were cultured in RPMI-1640 supplemented with Penicillin-Streptomycin and 10% FBS.
To investigate whether a compound is able to inhibit the activity of BCL-2 in cells, a mechanism-based assay using Toledo lines was developed. In this assay, the inhibition of BCL-2 was reflected by the inhibition of cell proliferation of Toledo cells. Cells were plated into 96-well plates at the optimized cell density of 30000 cells/well. Plates were incubated at 37° C., with 5% CO2 for 4 h. Compounds were serially diluted and added to the plates with the final concentrations of 10000, 3333.3, 1111.1, 370.4, 123.5, 41.2, 13.7, 4.6 and 1.5 nM. Plates were incubated at 37° C., with 5% CO2 for 72 h. 20 μl MTS was added into each well and the plates were incubated at 37° C., with 5% CO2 for exactly 2 h. The absorbance was measured by a microplate reader at 490 nm. IC50 was calculated using GraphPad Prism 5.0 software.

RS4;11-BCL-2 G101V cells = test: Cell proliferation assay (MTS), RS4;11-BCL-2 G101V engineered cells; format: cell-based; conditions: Homo sapiens, 120 h, read-out: RS4, 11 BCL2-G101V IC50
Procedure, shortened: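 RS4;11 cells stably overexpressing mutant BCL-2 were seeded and pre-incubated 4 h (G101V, F104L) or 24 h (D103E, D103Y), then exposed to compound at 1.5–10000 nM for 120 h (G101V, F104L) or 72 h (D103E, D103Y) at 37 °C. Viability was read by MTS absorbance at 490 nm after 2 h; IC50 fitted.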

SMILES: COc1nc2[nH]cc(F)c2cc1Oc1cc(N2CCC3(CC2)CC(N2CCN(Cc4cc(F)c(OC)c(F)c4)C[C@H]2c2ccccc2C(C)C)C3)ccc1C(=O)NS(=O)(=O)c1cnc(NC[C@H]2CC[C@](C)(O)CC2)c([N+](=O)[O-])c1 [Example 107, 4-(2-((R)-4-(3,5-difluoro-4-methoxybenzyl)-2-(2-isopropylphenyl)piperazin-1-yl)-7-azaspiro[3.5]nonan-7-yl)-2-((3-fluoro-6-methoxy-1H-pyrrolo[2,3-b]pyridin-5-yl)oxy)-N-((6-((((1r,4r)-4-hydroxy-4-methylcyclohexyl)methyl)amino)-5-nitropyridin-3-yl)sulfonyl)benzamide]
- pIC50 (Toledo cells): 9.00
- pIC50 (RS4;11-BCL-2 G101V cells): 9.00

SMILES: CC(C)c1ccccc1[C@@H]1CN(Cc2ccc(F)c(F)c2)CCN1C1CC2(CCN(c3ccc(C(=O)NS(=O)(=O)c4cnc(NC[C@H]5CC[C@](C)(O)CC5)c([N+](=O)[O-])c4)c(Oc4cnc5[nH]cc(F)c5c4)c3)CC2)C1 [Example 72, 4-(2-((R)-4-(3,4-difluorobenzyl)-2-(2-isopropylphenyl)piperazin-1-yl)-7-azaspiro[3.5]nonan-7-yl)-2-((3-fluoro-1H-pyrrolo[2,3-b]pyridin-5-yl)oxy)-N-((6-((((1r,4r)-4-hydroxy-4-methylcyclohexyl)methyl)amino)-5-nitropyridin-3-yl)sulfonyl)benzamide]
- pIC50 (Toledo cells): 9.00
- pIC50 (RS4;11-BCL-2 G101V cells): 9.00

SMILES: CCOc1nc2[nH]cc(F)c2cc1Oc1cc(N2CCC3(CC2)CC(N2CCN(C4COC4)C[C@H]2c2ccccc2C(C)C)C3)ccc1C(=O)NS(=O)(=O)c1cnc(NC[C@H]2CC[C@](C)(O)CC2)c([N+](=O)[O-])c1 [Example 132, 2-((6-ethoxy-3-fluoro-1H-pyrrolo[2,3-b]pyridin-5-yl)oxy)-N-((6-((((1r,4r)-4-hydroxy-4-methylcyclohexyl)methyl)amino)-5-nitropyridin-3-yl)sulfonyl)-4-(2-((R)-2-(2-isopropylphenyl)-4-(oxetan-3-yl)piperazin-1-yl)-7-azaspiro[3.5]nonan-7-yl)benzamide]
- pIC50 (Toledo cells): 9.00
- pIC50 (RS4;11-BCL-2 G101V cells): 9.00

SMILES: CCOc1nc2[nH]cc(F)c2cc1Oc1cc(N2CCC3(CC2)CC(N2CCN(C)C[C@H]2c2ccccc2C(C)C)C3)ccc1C(=O)NS(=O)(=O)c1cnc(NC[C@H]2CC[C@](C)(O)CC2)c([N+](=O)[O-])c1 [Example 138, 2-((6-ethoxy-3-fluoro-1H-pyrrolo[2,3-b]pyridin-5-yl)oxy)-N-((6-((((1r,4r)-4-hydroxy-4-methylcyclohexyl)methyl)amino)-5-nitropyridin-3-yl)sulfonyl)-4-(2-((R)-2-(2-isopropylphenyl)-4-methylpiperazin-1-yl)-7-azaspiro[3.5]nonan-7-yl)benzamide]
- pIC50 (Toledo cells): 9.00
- pIC50 (RS4;11-BCL-2 G101V cells): 9.00

SMILES: CCOc1nc2[nH]cc(F)c2cc1Oc1cc(N2CCC3(CC2)CC(N2CCN(Cc4cnn(C5CC5)c4)C[C@H]2c2ccccc2C(C)C)C3)ccc1C(=O)NS(=O)(=O)c1cnc(NC[C@H]2CC[C@](C)(O)CC2)c([N+](=O)[O-])c1 [Example 134, 4-(2-((R)-4-((1-cyclopropyl-1H-pyrazol-4-yl)methyl)-2-(2-isopropylphenyl)piperazin-1-yl)-7-azaspiro[3.5]nonan-7-yl)-2-((6-ethoxy-3-fluoro-1H-pyrrolo[2,3-b]pyridin-5-yl)oxy)-N-((6-((((1r,4r)-4-hydroxy-4-methylcyclohexyl)methyl)amino)-5-nitropyridin-3-yl)sulfonyl)benzamide]
- pIC50 (Toledo cells): 9.00
- pIC50 (RS4;11-BCL-2 G101V cells): 9.00

Now from value to molecule, other results behind:

- pIC50 (RS4;11-BCL-2 G101V cells): 9.00
SMILES: CCOc1nc2[nH]cc(F)c2cc1Oc1cc(N2CCC3(CC2)CC(N2CCN(Cc4ccnc(OC)c4)C[C@H]2c2ccccc2C(C)C)C3)ccc1C(=O)NS(=O)(=O)c1cnc(NC[C@H]2CC[C@](C)(O)CC2)c([N+](=O)[O-])c1 [Example 241, 2-((6-ethoxy-3-fluoro-1H-pyrrolo[2,3-b]pyridin-5-yl)oxy)-N-((6-((((1r,4r)-4-hydroxy-4-methylcyclohexyl)methyl)amino)-5-nitropyridin-3-yl)sulfonyl)-4-(2-((R)-2-(2-isopropylphenyl)-4-((2-methoxypyridin-4-yl)methyl)piperazin-1-yl)-7-azaspiro[3.5]nonan-7-yl)benzamide]
- pIC50 (Toledo cells): 9.00

- pIC50 (RS4;11-BCL-2 G101V cells): 9.00
SMILES: CCOc1nc2[nH]cc(F)c2cc1Oc1cc(N2CCC3(CC2)CC(N2CCN(Cc4ccc(C#N)cc4)C[C@H]2c2ccccc2C(C)C)C3)ccc1C(=O)NS(=O)(=O)c1cnc(NC[C@H]2CC[C@](C)(O)CC2)c([N+](=O)[O-])c1 [Example 235, 4-(2-((R)-4-(4-cyanobenzyl)-2-(2-isopropylphenyl)piperazin-1-yl)-7-azaspiro[3.5]nonan-7-yl)-2-((6-ethoxy-3-fluoro-1H-pyrrolo [2,3-b]pyridin-5-yl)oxy)-N-((6-((((1r,4r)-4-hydroxy-4-methylcyclohexyl)methyl)amino)-5-nitropyridin-3-yl)sulfonyl)benzamide]
- pIC50 (Toledo cells): 9.00

- pIC50 (RS4;11-BCL-2 G101V cells): 9.00
SMILES: COc1ccc(CN2CCN(C3CC4(CCN(c5ccc(C(=O)NS(=O)(=O)c6cnc(NC[C@H]7CC[C@](C)(O)CC7)c([N+](=O)[O-])c6)c(Oc6cnc7[nH]cc(F)c7c6)c5)CC4)C3)[C@H](c3ccccc3C(C)C)C2)cc1F [Example 201, 2-((3-fluoro-1H-pyrrolo[2,3-b]pyridin-5-yl)oxy)-4-(2-((R)-4-(3-fluoro-4-methoxybenzyl)-2-(2-isopropylphenyl)piperazin-1-yl)-7-azaspiro [3.5]nonan-7-yl)-N-((6-((((1r,4r)-4-hydroxy-4-methylcyclohexyl)methyl)amino)-5-nitropyridin-3-yl)sulfonyl)benzamide]
- pIC50 (Toledo cells): 9.00

- pIC50 (RS4;11-BCL-2 G101V cells): 9.00
SMILES: CCOc1nc2[nH]cc(F)c2cc1Oc1cc(N2CCC3(CC2)CC(N2CCN(Cc4ccc(Cl)cc4)C[C@H]2c2ccccc2C(C)C)C3)ccc1C(=O)NS(=O)(=O)c1cnc(NC[C@H]2CC[C@](C)(O)CC2)c([N+](=O)[O-])c1 [Example 231, 4-(2-((R)-4-(4-chlorobenzyl)-2-(2-isopropylphenyl)piperazin-1-yl)-7-azaspiro[3.5]nonan-7-yl)-2-((6-ethoxy-3-fluoro-1H-pyrrolo[2,3-b]pyridin-5-yl)oxy)-N-((6-((((1r,4r)-4-hydroxy-4-methylcyclohexyl)methyl)amino)-5-nitropyridin-3-yl)sulfonyl)benzamide]
- pIC50 (Toledo cells): 9.00

- pIC50 (RS4;11-BCL-2 G101V cells): 9.00
SMILES: CC(C)c1ccccc1[C@@H]1CN(C[C@@H]2COCCO2)CCN1C1CC2(CCN(c3ccc(C(=O)NS(=O)(=O)c4cnc(NC[C@H]5CC[C@](C)(O)CC5)c([N+](=O)[O-])c4)c(Oc4cnc5[nH]cc(F)c5c4)c3)CC2)C1 [Example 335, 4-(2-((R)-4-(((R)-1,4-dioxan-2-yl)methyl)-2-(2-isopropylphenyl)piperazin-1-yl)-7-azaspiro[3.5]nonan-7-yl)-2-((3-fluoro-1H-pyrrolo[2,3-b]pyridin-5-yl)oxy)-N-((6-((((1r,4r)-4-hydroxy-4-methylcyclohexyl)methyl)amino)-5-nitropyridin-3-yl)sulfonyl)benzamide]
- pIC50 (Toledo cells): 9.00

- pIC50 (RS4;11-BCL-2 G101V cells): 9.00
SMILES: CC(C)c1ccccc1[C@@H]1CN(Cc2cc3c(cn2)OCCO3)CCN1C1CC2(CCN(c3ccc(C(=O)NS(=O)(=O)c4cnc(NC[C@H]5CC[C@](C)(O)CC5)c([N+](=O)[O-])c4)c(Oc4cnc5[nH]cc(F)c5c4)c3)CC2)C1 [Example 341, 4-(2-((R)-4-((2,3-dihydro-[1,4]dioxino[2,3-c]pyridin-7-yl)methyl)-2-(2-isopropylphenyl)piperazin-1-yl)-7-azaspiro[3.5]nonan-7-yl)-2-((3-fluoro-1H-pyrrolo[2,3-b]pyridin-5-yl)oxy)-N-((6-((((1r,4r)-4-hydroxy-4-methylcyclohexyl)methyl)amino)-5-nitropyridin-3-yl)sulfonyl)benzamide]
- pIC50 (Toledo cells): 9.00

- pIC50 (RS4;11-BCL-2 G101V cells): 9.00
SMILES: COc1nc2[nH]cc(F)c2cc1Oc1cc(N2CCC3(CC2)CC(N2CCN(Cc4cc5c(cn4)OCCO5)C[C@H]2c2ccccc2C(C)C)C3)ccc1C(=O)NS(=O)(=O)c1cnc(NC[C@H]2CC[C@](C)(O)CC2)c([N+](=O)[O-])c1 [Example 338, 4-(2-((R)-4-((2,3-dihydro-[1,4]dioxino[2,3-c]pyridin-7-yl)methyl)-2-(2-isopropylphenyl)piperazin-1-yl)-7-azaspiro[3.5]nonan-7-yl)-2-((3-fluoro-6-methoxy-1H-pyrrolo[2,3-b]pyridin-5-yl)oxy)-N-((6-((((1r,4r)-4-hydroxy-4-methylcyclohexyl)methyl)amino)-5-nitropyridin-3-yl)sulfonyl)benzamide]
- pIC50 (Toledo cells): 9.00

- pIC50 (RS4;11-BCL-2 G101V cells): 9.00
SMILES: CCOc1nc2[nH]cc(F)c2cc1Oc1cc(N2CCC3(CC2)CC(N2CCN(Cc4ccc(F)cc4)C[C@H]2c2ccccc2C(C)C)C3)ccc1C(=O)NS(=O)(=O)c1cnc(NC[C@H]2CC[C@](C)(O)CC2)c([N+](=O)[O-])c1 [Example 234, 2-((6-ethoxy-3-fluoro-1H-pyrrolo[2,3-b]pyridin-5-yl)oxy)-4-(2-((R)-4-(4-fluorobenzyl)-2-(2-isopropylphenyl)piperazin-1-yl)-7-azaspiro[3.5]nonan-7-yl)-N-((6-((((1r,4r)-4-hydroxy-4-methylcyclohexyl)methyl)amino)-5-nitropyridin-3-yl)sulfonyl)benzamide]
- pIC50 (Toledo cells): 9.00
